This assay relates to T1, AChE.
T1 construct: gene ace1; native; newly emerged adult males for these rows
Kind of assay: Ellman assay (DTNB, […] nm), […] substrate concentrations […]. In kind it is biochemical, Blattella germanica. Particulars: newly emerged adult males; pH 7.5; 30 °C. A general note: In Ellman's method for cholinesterases, released thiocholine reacts with DTNB.

For orientation: Km means the substrate concentration at which the rate is half of its maximum. For `CC(=O)SCC[N+](C)(C)C` [Acetylthiocholine iodide], the Km was 340 ± 49 µM.
